# According to US11491145B2, “Combination therapies comprising targeted therapeutics” (priority 2017, dated 2022):
# Assay: Average weight changes in H460 model
# Assay type: in vivo
# Conditions: SCID mice, tracked 21 days, weight loss also in vehicle group, FIG. 1B
# Method: In this study, each study group included 8 SCID mice with H460 xenograft. Each group received vehicle (once per week), talazoparib (0.3 mg/kg, one does per day for 4-5 days per week), SDC-TRAP-0063 (100 mg/kg, once per week), or a combination therapy of SDC-TRAP-0063 (100 mg/kg, once per week) and talazoparib (0.3 mg/kg, 5 days per week).
# Average weight changes were also tracked for 21 days and the results for the groups treated with talazoparib, SDC-TRAP-0063, and a combination of SDC-TRAP-0063 and talazoparib were shown in FIG. 1B.
structure (smiles),measurement,value
"Cn1ncnc1[C@H]1c2n[nH]c(=O)c3cc(F)cc(c23)N[C@@H]1c1ccc(F)cc1 [talazoparib, Talazoparib]",average weight changes (weight loss),Weight loss was observed
